Laboratory results as given in publication PMC5750218, “Protein-inspired antibiotics active against vancomycin- and daptomycin-resistant bacteria” (Nature Communications, 2018).
In brackets after ≈: the same amount, converted by molar mass.

Key:
[1] = system: S. aureus (MRSA) ATCC 43300; test: Resistance frequency assay; format: cell-based; details: Staphylococcus aureus; TSB 1% agarose, 0.002% Tween 80; read-out: Agarose plate MIC
Description: The resistance frequency for Compound 19 was determined following literature procedures[41], [42].
Compound 19 was prepared to 160 µg mL^−1 solution in water from the given stock solution of 1 mM concentration. Vancomycin was prepared to 1.28 mg mL^−1 solution in water.
Tryptic soy broth (TSB) with 1% agarose and 0.002% Tween 80 was maintained at 45 to 50 °C in a water bath. 160 mL of agarose was transferred to 200 mL glass bottle, maintaining the remaining agarose in the water bath. […] A volume of 80 mL of agarose sample [A] was plated in four petri plates (duplicates/condition—neat, 10^−1) with swirling to ensure that the bottom of the plate was coated equally. An additional 80 mL of fresh agarose was added to the remaining 80 mL of agarose [A] sample to achieve a twofold dilution to provide agarose sample [B]. Once again, 80 mL of agarose sample [B] was plated in four petri plates. […]
Bacteria were subcultured at 37 °C overnight with shaking at 220 rpm. […] Resultant separated visible colonies were counted; those colonies that grow together were not included to determine the titre of the culture. […]
The colonies were counted after 24 h. The resistance frequency is determined by dividing the number of colonies obtained on the plates containing the antibacterial agent by the number of cells plated.

[2] = Critical micelle concentration assay; format: physicochemical; details: 0.2 M NaCl, DPH
Description: CMCs were determined as previously described[46] with a higher throughput modification. Briefly, a cascade dilution of each antibiotic was performed in a low binding polypropylene V-bottom shaped 96-well plates in the presence of 0.2 M NaCl solution across 12 concentrations ranging from 1000 to 0.1 μM, except the control melittin (100 to 0.01 μM). An identical cascade dilution was performed for the neutral detergent Triton X-100 and the anionic detergent sodium dodecyl sulphate (SDS) starting from 0.1% down to 0.00001% (vol:vol for Triton X-100 and wt:vol for SDS). An aliquot of […] (DPH) in DMSO was added in each well to yield the final DPH concentration of 5 μM. The reaction mixtures were mixed for 30 s and transferred in horizontal triplicate (25 μL per well) into a black falcon 384-well plate. The 384-well plate was then sealed, wrapped up in aluminium foil and incubated for 30 min at room temperature. The fluorescence intensity was monitored in real time using a BMG Labtech PolarStar Omega multimode reader fitted with 360-10 and 430-10 excitation and emission filters respectively, at an excitation wavelength of 360 nm and an emission wavelength of 430 nm.

CN[C@H](CC(C)C)C(=O)N[C@H]1C(=O)N[C@@H](CC(N)=O)C(=O)N[C@H]2C(=O)N[C@H]3C(=O)N[C@H](C(=O)N[C@H](C(=O)O)c4cc(O)cc(O)c4-c4cc3ccc4O)[C@H](O)c3ccc(c(Cl)c3)Oc3cc2cc(c3O[C@@H]2O[C@H](CO)[C@@H](O)[C@H](O)[C@H]2O[C@H]2C[C@](C)(N)[C@H](O)[C@H](C)O2)Oc2ccc(cc2Cl)[C@H]1O [Compound 1, Vancomycin]
MIC [1]: 1 µg/mL (≈ 0.69 µM)

CCCCCCCCCCCCCC(=O)N[C@@H](CCCCN)C(=O)N[C@@H](CCCCN)C(=O)N[C@@H](CCCCN)C(=O)N[C@@H](CCCCNC(=O)[C@H]1NC(=O)[C@H]2NC(=O)[C@H](NC(=O)[C@@H]3NC(=O)[C@H](CC(N)=O)NC(=O)[C@H](NC(=O)[C@@H](CC(C)C)NC)[C@H](O)c4ccc(c(Cl)c4)Oc4cc3cc(c4O[C@@H]3O[C@H](CO)[C@@H](O)[C@H](O)[C@H]3O[C@H]3C[C@](C)(N)[C@H](O)[C@H](C)O3)Oc3ccc(cc3Cl)[C@H]2O)c2ccc(O)c(c2)-c2c(O)cc(O)cc21)C(=O)O [Compound 17, nC13CO-KKK-K(Vancomycin)-OH]
critical micelle concentration (CMC) [2]: exceed 100 µM
